Structures can show the parent of a compound that is named as a salt. Calls of active or inactive are those of the source.
Legend:
[1] = target: Voltage-gated inwardly rectifying potassium channel KCNH2 (Homo sapiens, UniProt Q12809); conditions: Potency;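 note: confirmatory quantitative high-throughput screen measuring inhibition of hERG channel activity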
[2] = DRD fibroblast viability loss – cell-based, non-viral oncogenic, luminescence, dose response (AID 1934); format: functional; conditions: Homo sapiens
[3] = test system: BJ; experiment: cells; format: functional, cell-based; conditions: Homo sapiens
[4] = test system: BJ; experiment: BJ-TERT fibroblast viability loss – cell-based, RAS-independent, luminescence, dose response (AID 1933); format: functional; conditions: Homo sapiens
[5] = test system: BJ; experiment: BJ-TERT-LT-ST fibroblast viability loss – cell-based, RAS-independent, luminescence, dose response (AID 1935); format: functional; conditions: Homo sapiens;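 note: BJ fibroblasts immortalized with TERT plus LT and ST oncogenes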
[6] = target: T1, Carboxy-terminal domain RNA polymerase II polypeptide A small phosphatase 1 (Homo sapiens, UniProt Q9GZU7); experiment: CTDSP1 inhibitors, concentration-response, biochemical, absorbance readout, ultra-high-throughput screen actives (AID 540297); format: functional
T1 sequence (Q9GZU7 whole entry): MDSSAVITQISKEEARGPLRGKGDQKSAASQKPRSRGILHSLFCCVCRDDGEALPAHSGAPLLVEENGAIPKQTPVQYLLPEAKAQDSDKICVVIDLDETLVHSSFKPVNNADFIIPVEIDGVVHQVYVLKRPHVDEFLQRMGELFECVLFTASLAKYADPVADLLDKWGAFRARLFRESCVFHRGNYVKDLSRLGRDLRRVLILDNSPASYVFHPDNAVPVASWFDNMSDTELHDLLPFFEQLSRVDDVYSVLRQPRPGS

[7] = target: T2, Short transient receptor potential channel 4 (Mus musculus, UniProt Q9QUQ5); experiment: block of DAMGO-driven TRPC4 calcium entry – cell-based, HEK293 TRPC4/mu-opioid, Fluo-4 calcium, dose response (AID 434942); format: functional;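 note: potency of inhibitors blocking the TRPC4 calcium response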
T2 sequence (Q9QUQ5 whole entry): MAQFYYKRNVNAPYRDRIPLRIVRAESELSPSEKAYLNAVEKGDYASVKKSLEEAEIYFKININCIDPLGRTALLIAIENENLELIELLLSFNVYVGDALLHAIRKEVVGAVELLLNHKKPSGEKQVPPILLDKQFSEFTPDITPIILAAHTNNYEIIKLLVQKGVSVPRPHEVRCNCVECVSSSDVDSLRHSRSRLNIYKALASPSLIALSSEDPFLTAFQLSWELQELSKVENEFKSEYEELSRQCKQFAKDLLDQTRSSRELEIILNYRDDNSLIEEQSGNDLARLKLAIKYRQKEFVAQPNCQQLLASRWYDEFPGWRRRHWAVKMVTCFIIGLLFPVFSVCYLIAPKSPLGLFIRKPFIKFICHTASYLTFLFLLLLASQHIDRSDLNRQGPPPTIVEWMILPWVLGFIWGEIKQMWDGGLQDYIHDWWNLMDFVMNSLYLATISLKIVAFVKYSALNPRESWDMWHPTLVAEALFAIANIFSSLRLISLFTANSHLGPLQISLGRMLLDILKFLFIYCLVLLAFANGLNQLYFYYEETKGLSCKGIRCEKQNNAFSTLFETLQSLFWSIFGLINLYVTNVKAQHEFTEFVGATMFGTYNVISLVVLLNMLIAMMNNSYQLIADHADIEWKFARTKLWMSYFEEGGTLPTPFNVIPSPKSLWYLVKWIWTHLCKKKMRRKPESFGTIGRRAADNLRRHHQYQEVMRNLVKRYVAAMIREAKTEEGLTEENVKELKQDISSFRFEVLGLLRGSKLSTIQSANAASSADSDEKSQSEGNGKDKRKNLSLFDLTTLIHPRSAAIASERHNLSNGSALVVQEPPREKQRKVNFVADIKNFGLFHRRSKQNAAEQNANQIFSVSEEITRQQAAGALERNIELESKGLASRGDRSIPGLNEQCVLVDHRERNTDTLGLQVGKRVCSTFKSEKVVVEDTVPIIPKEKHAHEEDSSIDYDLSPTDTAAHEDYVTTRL

[8] = target: T3, Coagulation factor XII (Homo sapiens, UniProt P00748); format: functional;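 note: activated factor XIIa alpha cleaving a fluorogenic AMC peptide substrate; inhibitor potency from loss of enzyme activity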
T3 sequence (P00748 whole entry): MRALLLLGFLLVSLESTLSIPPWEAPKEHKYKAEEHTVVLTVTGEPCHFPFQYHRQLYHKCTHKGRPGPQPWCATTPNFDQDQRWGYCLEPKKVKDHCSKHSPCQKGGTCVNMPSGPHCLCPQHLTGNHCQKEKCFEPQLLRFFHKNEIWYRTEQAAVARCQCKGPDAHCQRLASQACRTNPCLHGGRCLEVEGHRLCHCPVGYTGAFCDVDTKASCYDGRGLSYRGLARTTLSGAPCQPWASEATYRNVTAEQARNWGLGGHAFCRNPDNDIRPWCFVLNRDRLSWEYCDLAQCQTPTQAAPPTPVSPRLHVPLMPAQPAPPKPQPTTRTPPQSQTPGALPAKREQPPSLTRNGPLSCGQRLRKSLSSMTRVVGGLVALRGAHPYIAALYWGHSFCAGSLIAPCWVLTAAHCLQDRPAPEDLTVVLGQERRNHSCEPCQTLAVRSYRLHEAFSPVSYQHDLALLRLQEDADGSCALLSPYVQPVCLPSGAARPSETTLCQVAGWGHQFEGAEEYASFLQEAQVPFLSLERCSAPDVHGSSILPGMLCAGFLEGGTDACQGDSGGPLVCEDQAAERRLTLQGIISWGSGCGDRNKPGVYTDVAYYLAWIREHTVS

[9] = A cytotoxicity screen of small molecule inhibitors of the PhoP region in Salmonella typhi identified in the primary screen. [Related pubchem assays: 1850, 1864, 1985 ]; format: functional
[10] = target: Peroxisome proliferator-activated receptor gamma/Nuclear receptor coactivator 1 (Homo sapiens, UniProt P37231); format: functional;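 note: agonist potency as compounds enhance coactivator SRC-1 recruitment to PPARgamma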
[11] = target: Peroxisome proliferator-activated receptor gamma/Nuclear receptor coactivator 2 (Homo sapiens, UniProt P37231); format: functional;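 note: agonist potency for raising coactivator recruitment to the receptor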
[12] = target: Peroxisome proliferator-activated receptor gamma/Nuclear receptor coactivator 3 (Homo sapiens, UniProt P37231); format: functional;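 note: agonist potency for raising coactivator recruitment to the receptor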
[13] = target: T4, Ubiquitin-conjugating enzyme E2 N (Homo sapiens, UniProt P61088); format: functional;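 note: Dose-response confirmation in a TR-FRET assay detecting UBC13-driven polyubiquitin chain formation, inhibition measured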
T4 sequence (P61088 whole entry): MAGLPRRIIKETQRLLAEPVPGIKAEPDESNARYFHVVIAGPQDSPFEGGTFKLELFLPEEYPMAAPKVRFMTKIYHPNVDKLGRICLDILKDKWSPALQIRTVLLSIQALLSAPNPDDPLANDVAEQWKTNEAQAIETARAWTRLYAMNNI

[14] = target: T5, Hexokinase (Trypanosoma brucei, UniProt Q38C41); experiment: Confirmation assay for inhibitors of Trypanosoma brucei hexokinase 1-Analogue-first series. [Related pubchem assays (depositor defined):AID1430, AID1632, AID2516, AID2560, AID2579, AID2600, AID449725, AID492951]; format: functional
T5 sequence (Q38C41 whole entry): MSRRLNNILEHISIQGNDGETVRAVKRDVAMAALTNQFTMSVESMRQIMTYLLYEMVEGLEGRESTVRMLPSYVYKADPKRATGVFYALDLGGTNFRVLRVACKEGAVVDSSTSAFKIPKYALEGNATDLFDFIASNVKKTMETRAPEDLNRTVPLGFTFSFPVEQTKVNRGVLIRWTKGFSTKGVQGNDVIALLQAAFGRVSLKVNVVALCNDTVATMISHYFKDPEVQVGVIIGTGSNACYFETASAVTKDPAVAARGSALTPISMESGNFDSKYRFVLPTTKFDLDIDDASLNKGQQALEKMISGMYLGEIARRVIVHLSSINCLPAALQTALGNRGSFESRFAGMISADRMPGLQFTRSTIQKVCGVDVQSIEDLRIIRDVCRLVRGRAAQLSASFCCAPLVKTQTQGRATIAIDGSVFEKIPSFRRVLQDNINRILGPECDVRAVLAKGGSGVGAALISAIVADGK

[15] = test system: INS1; experiment: INS-1E survival protection against cytokine death – cell-based, luminescence, retest, dose response (AID 449756); format: functional; conditions: Rattus norvegicus;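 note: cell death triggered by IL-1 beta plus TNF-alpha plus IFN-gamma mixture; protective hits raise ATP signal compared with cytokine alone wells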
[16] = Luminescence Cell-Based Dose Retest to Confirm Inhibitors of Cancer Stem Cells. [Related pubchem assays (depositor defined):AID2717, AID2721]; format: functional; conditions: Homo sapiens
[17] = decrease of insulin promoter-GFP reporter – imaging, high-content screening, mouse beta cells (AID 1628); format: functional; conditions: MIN6
[18] = MIN6 cell viability loss – mouse insulinoma, cytotoxicity control, dose response (AID 2122); format: functional;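 note: confirmatory high-throughput counterscreen run to flag cytotoxic compounds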
[19] = Trypanosoma cruzi growth suppression in host cells – NIH3T3 host cells, beta-gal luminescence, confirmation (AID 2044); format: functional, cell-based;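 note: intracellular parasites grown in NIH/3T3 mouse fibroblasts as host cells; luminescent beta-galactosidase reporter signal from transgenic T. cruzi replicating inside host cells; inhibitors lower the luminescence signal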
[20] = NIH3T3 cell viability loss – ATP luminescence, mouse fibroblasts, counter-screen, dose response (AID 2010); format: functional, cell-based;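 note: cells exposed to compound for about 90 hours before reading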

Chain of Voltage-gated inwardly rectifying potassium channel KCNH2 (Q12809 whole entry): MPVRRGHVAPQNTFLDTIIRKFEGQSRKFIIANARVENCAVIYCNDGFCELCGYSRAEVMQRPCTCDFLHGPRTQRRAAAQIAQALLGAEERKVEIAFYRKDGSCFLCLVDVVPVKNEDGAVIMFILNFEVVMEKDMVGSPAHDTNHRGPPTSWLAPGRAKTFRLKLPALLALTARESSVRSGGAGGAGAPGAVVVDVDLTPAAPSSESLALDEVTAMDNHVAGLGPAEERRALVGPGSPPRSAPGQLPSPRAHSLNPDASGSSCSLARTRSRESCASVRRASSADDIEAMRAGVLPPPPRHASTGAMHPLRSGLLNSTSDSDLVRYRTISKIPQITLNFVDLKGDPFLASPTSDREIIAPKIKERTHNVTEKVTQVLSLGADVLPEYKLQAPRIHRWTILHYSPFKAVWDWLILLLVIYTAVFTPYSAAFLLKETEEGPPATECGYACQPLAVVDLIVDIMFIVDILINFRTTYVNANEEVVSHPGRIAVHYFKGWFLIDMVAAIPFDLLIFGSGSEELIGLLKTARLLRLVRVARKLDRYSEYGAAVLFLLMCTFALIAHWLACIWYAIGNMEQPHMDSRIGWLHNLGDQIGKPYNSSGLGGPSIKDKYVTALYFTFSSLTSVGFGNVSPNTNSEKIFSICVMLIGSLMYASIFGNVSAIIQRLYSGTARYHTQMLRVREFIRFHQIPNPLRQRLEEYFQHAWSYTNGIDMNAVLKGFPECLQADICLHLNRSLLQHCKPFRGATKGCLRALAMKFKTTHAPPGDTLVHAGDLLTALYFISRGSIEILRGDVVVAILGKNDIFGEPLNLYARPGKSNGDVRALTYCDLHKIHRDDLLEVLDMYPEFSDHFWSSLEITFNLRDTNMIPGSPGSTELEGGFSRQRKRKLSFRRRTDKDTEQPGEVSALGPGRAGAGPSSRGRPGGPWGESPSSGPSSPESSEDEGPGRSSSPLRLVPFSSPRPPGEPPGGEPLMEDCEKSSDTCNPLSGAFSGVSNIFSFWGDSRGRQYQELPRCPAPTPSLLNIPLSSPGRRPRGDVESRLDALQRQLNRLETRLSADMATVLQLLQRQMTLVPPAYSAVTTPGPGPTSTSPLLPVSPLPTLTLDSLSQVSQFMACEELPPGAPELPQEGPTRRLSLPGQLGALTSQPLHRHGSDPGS
Chain of Peroxisome proliferator-activated receptor gamma/Nuclear receptor coactivator 2 (P37231 whole entry): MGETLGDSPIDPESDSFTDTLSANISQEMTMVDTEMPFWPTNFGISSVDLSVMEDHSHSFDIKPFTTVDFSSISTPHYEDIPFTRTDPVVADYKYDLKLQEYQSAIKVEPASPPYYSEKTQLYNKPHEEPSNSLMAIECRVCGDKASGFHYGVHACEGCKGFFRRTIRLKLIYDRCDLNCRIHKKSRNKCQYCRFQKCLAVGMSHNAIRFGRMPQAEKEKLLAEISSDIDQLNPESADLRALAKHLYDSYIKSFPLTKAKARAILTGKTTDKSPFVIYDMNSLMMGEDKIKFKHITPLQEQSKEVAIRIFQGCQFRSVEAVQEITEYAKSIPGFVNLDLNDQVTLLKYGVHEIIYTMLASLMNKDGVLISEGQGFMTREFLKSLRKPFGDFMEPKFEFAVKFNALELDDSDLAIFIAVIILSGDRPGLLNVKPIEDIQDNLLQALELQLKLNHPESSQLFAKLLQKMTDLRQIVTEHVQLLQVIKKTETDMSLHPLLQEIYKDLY
Chain of Peroxisome proliferator-activated receptor gamma/Nuclear receptor coactivator 2 (Q15596 whole entry, further chain): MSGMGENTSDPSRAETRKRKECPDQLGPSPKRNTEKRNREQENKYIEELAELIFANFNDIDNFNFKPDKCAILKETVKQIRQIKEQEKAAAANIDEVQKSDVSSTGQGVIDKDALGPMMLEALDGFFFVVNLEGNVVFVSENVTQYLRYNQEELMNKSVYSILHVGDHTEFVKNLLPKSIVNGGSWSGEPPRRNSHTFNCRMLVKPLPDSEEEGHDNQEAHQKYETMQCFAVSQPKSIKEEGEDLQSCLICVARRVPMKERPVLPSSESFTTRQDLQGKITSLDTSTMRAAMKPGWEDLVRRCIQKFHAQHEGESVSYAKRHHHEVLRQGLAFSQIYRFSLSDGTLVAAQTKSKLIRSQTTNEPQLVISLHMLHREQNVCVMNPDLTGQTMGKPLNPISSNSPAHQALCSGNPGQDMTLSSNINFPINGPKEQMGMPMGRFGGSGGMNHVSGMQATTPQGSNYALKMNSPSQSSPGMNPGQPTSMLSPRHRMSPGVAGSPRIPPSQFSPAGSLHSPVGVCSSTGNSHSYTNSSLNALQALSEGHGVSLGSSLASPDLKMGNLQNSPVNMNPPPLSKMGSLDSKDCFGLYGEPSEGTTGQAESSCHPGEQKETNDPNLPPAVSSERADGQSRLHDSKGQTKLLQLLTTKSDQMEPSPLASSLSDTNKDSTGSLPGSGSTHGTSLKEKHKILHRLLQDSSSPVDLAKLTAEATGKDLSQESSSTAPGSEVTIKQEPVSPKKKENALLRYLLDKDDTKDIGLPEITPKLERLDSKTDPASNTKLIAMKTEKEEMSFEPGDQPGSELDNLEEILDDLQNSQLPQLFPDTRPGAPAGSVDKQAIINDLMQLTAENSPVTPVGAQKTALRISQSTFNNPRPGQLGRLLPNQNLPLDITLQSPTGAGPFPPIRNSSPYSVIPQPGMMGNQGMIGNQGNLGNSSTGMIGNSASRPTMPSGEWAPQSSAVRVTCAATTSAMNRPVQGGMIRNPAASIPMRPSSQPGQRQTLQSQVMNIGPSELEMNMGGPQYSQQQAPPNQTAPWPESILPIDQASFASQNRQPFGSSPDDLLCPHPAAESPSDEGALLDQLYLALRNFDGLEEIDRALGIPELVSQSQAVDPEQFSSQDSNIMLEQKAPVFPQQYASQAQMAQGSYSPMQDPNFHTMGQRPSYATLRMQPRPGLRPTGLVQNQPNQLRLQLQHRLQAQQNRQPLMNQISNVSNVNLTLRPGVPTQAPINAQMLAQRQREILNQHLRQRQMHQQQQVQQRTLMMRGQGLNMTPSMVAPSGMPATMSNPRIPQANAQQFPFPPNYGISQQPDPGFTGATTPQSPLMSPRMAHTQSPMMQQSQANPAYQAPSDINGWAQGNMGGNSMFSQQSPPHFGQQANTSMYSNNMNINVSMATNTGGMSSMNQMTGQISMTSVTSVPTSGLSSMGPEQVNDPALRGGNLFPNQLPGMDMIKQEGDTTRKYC
Chain of Peroxisome proliferator-activated receptor gamma/Nuclear receptor coactivator 3 (P37231 whole entry): as the sequence (P37231 whole entry) above
Chain of Peroxisome proliferator-activated receptor gamma/Nuclear receptor coactivator 3 (Q9Y6Q9 whole entry, further chain): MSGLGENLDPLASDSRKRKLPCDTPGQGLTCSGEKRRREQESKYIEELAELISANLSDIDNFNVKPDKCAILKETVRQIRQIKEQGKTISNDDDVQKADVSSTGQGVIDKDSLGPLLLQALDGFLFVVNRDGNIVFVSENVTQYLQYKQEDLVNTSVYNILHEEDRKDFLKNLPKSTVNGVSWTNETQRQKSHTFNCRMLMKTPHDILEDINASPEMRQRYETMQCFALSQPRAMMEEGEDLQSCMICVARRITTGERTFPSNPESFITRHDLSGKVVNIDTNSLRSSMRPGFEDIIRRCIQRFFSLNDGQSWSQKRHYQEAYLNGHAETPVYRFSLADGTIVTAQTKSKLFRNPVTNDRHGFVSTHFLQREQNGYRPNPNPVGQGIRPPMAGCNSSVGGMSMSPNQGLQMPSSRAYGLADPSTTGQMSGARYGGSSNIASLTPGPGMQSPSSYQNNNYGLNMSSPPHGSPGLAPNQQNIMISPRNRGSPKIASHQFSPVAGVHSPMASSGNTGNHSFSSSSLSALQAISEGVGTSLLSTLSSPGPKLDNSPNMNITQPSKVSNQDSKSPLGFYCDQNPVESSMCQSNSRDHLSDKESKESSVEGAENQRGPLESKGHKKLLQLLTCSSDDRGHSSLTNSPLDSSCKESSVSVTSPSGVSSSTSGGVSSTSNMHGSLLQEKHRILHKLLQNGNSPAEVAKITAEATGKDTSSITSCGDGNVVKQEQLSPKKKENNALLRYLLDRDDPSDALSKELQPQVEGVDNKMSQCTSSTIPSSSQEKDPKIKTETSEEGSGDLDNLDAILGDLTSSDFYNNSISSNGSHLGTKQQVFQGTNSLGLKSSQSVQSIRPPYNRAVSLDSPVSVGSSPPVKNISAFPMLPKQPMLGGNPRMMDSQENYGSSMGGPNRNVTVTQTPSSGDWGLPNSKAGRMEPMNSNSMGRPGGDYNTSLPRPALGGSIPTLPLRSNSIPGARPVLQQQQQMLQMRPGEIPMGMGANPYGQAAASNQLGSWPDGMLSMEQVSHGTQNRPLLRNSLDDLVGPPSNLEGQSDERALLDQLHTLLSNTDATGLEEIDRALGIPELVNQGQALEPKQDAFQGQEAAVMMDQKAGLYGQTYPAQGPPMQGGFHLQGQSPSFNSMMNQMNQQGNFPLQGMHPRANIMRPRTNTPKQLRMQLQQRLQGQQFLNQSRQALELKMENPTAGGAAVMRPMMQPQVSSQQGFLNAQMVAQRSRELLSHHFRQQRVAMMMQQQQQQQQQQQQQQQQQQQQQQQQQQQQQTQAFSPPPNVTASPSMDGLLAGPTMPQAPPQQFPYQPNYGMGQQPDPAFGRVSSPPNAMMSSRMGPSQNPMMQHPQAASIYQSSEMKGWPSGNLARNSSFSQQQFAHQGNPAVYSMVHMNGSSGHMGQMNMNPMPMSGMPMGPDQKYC

Structure (SMILES): NCCNS(=O)(=O)c1cccc2c(Cl)cccc12
- AC50 [1]: 22.4 µM (inconclusive)

Structure (SMILES): COc1cccc2cc(-c3csc(NC(=O)CCC(=O)NCCCN4CCC(C)CC4)n3)c(=O)oc12
- EC50 [2]: 11.5 µM (active)
- EC50 [3]: 13.3 µM (active)
- EC50 [4]: 12.7 µM (active)
- EC50 [5]: > 150 µM (not active)

Structure (SMILES): O=C(COc1cccnc1[N+](=O)[O-])Nc1ncc(Cl)cc1Cl
- IC50 [6]: 6.27 µM (active)

Structure (SMILES): COc1ccc(-n2c3c(cc(C(=O)NCc4ccco4)c2=O)C(=O)CC(C)(C)C3)cc1
- EC50 [7]: 3.76 µM (active)

Structure (SMILES): CCCC(C)NC(=O)Cc1ccccc1 (centres undefined)
- IC50 [8]: > 50 µM (inactive)

Structure (SMILES): COc1cc(OC)cc(C(=O)Nc2ccc(NC(=O)c3ccco3)c(C)c2)c1
- EC50 [2]: 9.93 µM (active)
- EC50 [3]: 10.1 µM (active)
- EC50 [4]: 15.2 µM (active)
- EC50 [5]: 19.5 µM (active)

Structure (SMILES): COC(=O)Cc1ccc(NC(S)=NCc2ccc(Cl)cc2)cc1
- EC50 [9]: > 50 µM (active)

Structure (SMILES): CN(C)CCCCSC(=N)N
- AC50 [1]: 35.5 µM (inconclusive)

Structure (SMILES): CCn1cc(/C=C/C(=O)Nc2ccn(Cc3c(F)c(F)c(F)c(F)c3F)n2)cn1
- EC50 [10]: > 79.4 µM (not active)
- EC50 [11]: > 79.4 µM (not active)
- EC50 [12]: > 79.4 µM (not active)

Structure (SMILES): CCCC1(c2ccccc2)NC(=O)N(CC(=O)Nc2cc(S(=O)(=O)N3CCOCC3)ccc2Cl)C1=O (centres undefined)
- EC50 [9]: > 50 µM (active)

Structure (SMILES): COc1ccc(OC)c(NC(=O)CSc2nnc(N)s2)c1
- EC50 [10]: > 79.4 µM (not active)
- EC50 [11]: > 79.4 µM (not active)
- EC50 [12]: > 79.4 µM (not active)

Structure (SMILES): COc1cccc(-c2ccc(SCc3ccccn3)nn2)c1
- EC50 [9]: > 50 µM (active)

Structure (SMILES): CCCCCCNC(=O)N[C@@H](C(=O)NCCC[C@H]1CN2C(=NC[C@@H]2Cc2ccccc2)N1CCc1cccc(OC)c1)C(C)C
- IC50 [13]: > 20 µM (inactive)

Structure (SMILES): O=C1c2ccccc2C(=O)N1OS(=O)(=O)c1ccccc1
- IC50 [8]: 1.61 µM (active)

Structure (SMILES): Cc1ccc(C)c2[nH]c(=O)c(CN(Cc3nnnn3C3CCCCC3)CC3CCCO3)cc12 (centres undefined)
- EC50 [7]: 1.68 µM (active)
- IC50 [8]: > 50 µM (inactive)

Structure (SMILES): CC(C)(C)Cc1nnc(NC(=O)Cc2cccs2)s1
- IC50 [6]: 4.36 µM (active)

Structure (SMILES): O=C(NNc1cc(Cl)ccc1Cl)c1c(F)cccc1Cl
- IC50 [8]: > 50 µM (inactive)

Structure (SMILES): COc1ccc(-c2[nH]c3ccccc3c2SCCNC(=O)c2ccccc2)cc1
- EC50 [10]: 39.5 µM (not active)
- EC50 [11]: 33.6 µM (not active)
- EC50 [12]: < 79.4 µM (not active)

Structure (SMILES): CCc1ccc2c(c1)cc(CN(C(=S)Nc1ccc(Cl)cc1)C1CC1)c1nnnn12
- EC50 [10]: 11.5 µM (not active)
- EC50 [11]: 8.9 µM (active)
- EC50 [12]: 11.6 µM (not active)

Structure (SMILES): Cc1nn(CCc2nnn[nH]2)c2nc(-c3ccccc3)cc(C(F)(F)F)c12
- IC50 [6]: 7.45 µM (active)

Structure (SMILES): CCOC(=O)C1=C(C)c2ccccc2OC1(C(=O)OCC)c1ccccc1 (centres undefined)
- IC50 [6]: 34.2 µM (active)

Structure (SMILES): O=C(Nc1ccncc1)Nc1ccc(Cl)cc1
- EC50 [9]: > 50 µM (active)

Structure (SMILES): CC(C)(C)c1ccc(C(=O)Nc2cc(Cl)ccc2O)cc1
- IC50 [14]: 25 µM (inactive)

Structure (SMILES): COc1ccc(C(=O)Nc2cc(I)ccc2C(=O)O)cc1
- IC50 [14]: 14.2 µM (active)

Structure (SMILES): O=C(Cn1sc2ccccc2c1=O)Nc1ccccc1I
- IC50 [14]: 4.75 µM (active)

Structure (SMILES): O=C1c2cccc(Br)c2SCN1c1ccccc1
- IC50 [14]: > 25 µM (inactive)

Structure (SMILES): COCCn1c(SCc2ccc(F)cc2)nc2ccccc2c1=O
- EC50 [7]: 2.37 µM (active)

Structure (SMILES): NS(=O)(=O)c1ccc(N/N=C/c2cn(-c3ccccc3)nc2-c2cccs2)c([N+](=O)[O-])c1
- AC50 [15]: 4.07 µM (active)
- AC50 [16]: 1.39 µM (active)
- IC50 [17]: 1.43 µM (active)
- EC50 [2]: 8.22 µM (active)
- EC50 [3]: 19.4 µM (active)
- EC50 [4]: 4.24 µM (active)
- IC50 [18]: 4.7 µM (active)
- EC50 [5]: 6.17 µM (inconclusive)
- EC50 [19]: 0.846 µM (active)
- EC50 [20]: 12.4 µM (active)

Structure (SMILES): Cc1nc(N)sc1C(=O)N/N=C/c1ccco1
- IC50 [13]: > 20 µM (inactive)

Structure (SMILES): CCN(CC)CCNC(=O)c1cc(S(C)(=O)=O)ccc1OC [TIAPRIDE HYDROCHLORIDE]
- AC50 [1]: 35.5 µM (inconclusive)

Reference: ChEMBL document CHEMBL1201862, “PubChem BioAssay data set” (2004)
